Read-outs that look alike come from different tables or passages of the source.
Tested on: 280 human cancer cell lines
Experiment: OncoPanel cell proliferation assay (10-day)
Format: cell-based
Conditions: Homo sapiens; for EC50: read-out: Cell Count EC50; for GI50: read-out: Cell Count GI50; for IC50: read-out: Cell Count IC50
[1] = Caov-3, CaOV3, Female GU - Ovary
[2] = ChaGo-K-1, ChaGoK1, Lung - NSCLC
[3] = D341 Med, CNS - Medulloblastoma
[4] = Detroit 562, Detroit 562, Head and Neck
[5] = DoTc2-4510, DoTc2 4510, Lymphoma
[6] = G292, G-292, clone A141B1, Soft Tissue - Osteosarcoma
[7] = HEL 92.1.7, HEL-92-1-7, Leukemia
[8] = HOS, Soft Tissue - Osteosarcoma
[9] = HT-1080, HT-1080, Soft Tissue - Sarcoma
[10] = HUH-6-clone5, HUH-6 Clone 5, Liver
[11] = Hs 821.T, Soft Tissue - Sarcoma
[12] = Hs 888.Sk, Soft Tissue - Osteosarcoma

## CC(C)=CCC[C@H](C)[C@@H]1CC[C@@H](C)c2c1cc(C)c(O)c2O [Compound 4, 7,8-dihydroxyserrulat-14-ene]
[1]
  EC50: 10.2 µM
  GI50: 10.2 µM
  IC50: 10.3 µM
Capan-2, Capan-2, Pancreas
  EC50: 24.8 µM
  GI50: 24.7 µM
  IC50: 24.8 µM
[2]
  EC50: 8.92 µM
  GI50: 8.82 µM
  IC50: 8.92 µM
[3]
  EC50: 8.57 µM
  GI50: 8.4 µM
  IC50: 8.57 µM
DB, Lymphoma
  EC50: 3.85 µM
  GI50: 3.84 µM
  IC50: 3.85 µM
DBTRG-05MG, CNS - Glioma
  EC50: 17.6 µM
  GI50: 17.4 µM
  IC50: 17.6 µM
DK-MG, CNS - Glioma
  EC50: 17.2 µM
  GI50: 16.4 µM
  IC50: 17.2 µM
DLD-1, DLD-1, Colon
  EC50: 15.7 µM
  GI50: 15.7 µM
  IC50: 15.7 µM
DMS-53, DMS53, Lung - SCLC
  EC50: 8.95 µM
  GI50: 8.6 µM
  IC50: 8.95 µM
DMS-114, DMS114, Lung - SCLC
  EC50: 11.5 µM
  GI50: 11.4 µM
  IC50: 11.6 µM
DOHH-2, DOHH-2, Lymphoma
  EC50: 2.24 µM
  GI50: 2.24 µM
  IC50: 2.24 µM
DU-145, DU145, Prostate
  EC50: 18.1 µM
  GI50: 18.1 µM
  IC50: 18.1 µM
Daoy, CNS - Medulloblastoma
  EC50: 3.19 µM
  GI50: 3.19 µM
  IC50: 3.19 µM
Daudi, Lymphoma
  EC50: 2.28 µM
  GI50: 2.28 µM
  IC50: 2.28 µM
[4]
  EC50: 25 µM
  GI50: 25 µM
  IC50: 25 µM
[5]
  EC50: 9.23 µM
  GI50: 9.09 µM
  IC50: 9.23 µM
EB2, Lymphoma
  EC50: 8.35 µM
  GI50: 8.32 µM
  IC50: 8.38 µM
EB-3, Lymphoma
  EC50: 3.93 µM
  GI50: 3.93 µM
  IC50: 3.93 µM
EFM-19, EFM-19, Breast
  EC50: 11.9 µM
  GI50: 11.3 µM
  IC50: 11.9 µM
EM-2, Leukemia
  EC50: 3.99 µM
  GI50: 4 µM
  IC50: 4 µM
FaDu, Head and Neck
  EC50: 8.28 µM
  GI50: 8.28 µM
  IC50: 8.28 µM
[6]
  EC50: 6.23 µM
  GI50: 6.07 µM
  IC50: 6.25 µM
G-361, G-361, Skin (Melanoma)
  EC50: 13.8 µM
  GI50: 13.8 µM
  IC50: 13.9 µM
G-401, G-401, Kidney
  EC50: 8.08 µM
  GI50: 8.05 µM
  IC50: 8.08 µM
GA-10, GA-10, Lymphoma
  EC50: 1.23 µM
  GI50: 1.23 µM
  IC50: 1.23 µM
H4, CNS - Glioma
  EC50: 13 µM
  GI50: 13 µM
  IC50: 13 µM
HCT-15, HCT-15, Colon
  EC50: 13.4 µM
  GI50: 13.4 µM
  IC50: 13.4 µM
HCT-116, HCT-116, Colon
  EC50: 10.3 µM
  GI50: 10.3 µM
  IC50: 10.3 µM
HEC-1-A, Female GU - Uterus
  EC50: 12.3 µM
  GI50: 12.2 µM
  IC50: 12.3 µM
[7]
  EC50: 4.05 µM
  GI50: 4.05 µM
  IC50: 4.05 µM
HLE, Liver
  EC50: 7.24 µM
  GI50: 7.15 µM
  IC50: 7.24 µM
HLF, Liver
  EC50: 8.72 µM
  GI50: 8.7 µM
  IC50: 8.74 µM
HMCB, Skin (Melanoma)
  EC50: 9.49 µM
  GI50: 9.38 µM
  IC50: 9.49 µM
[8]
  EC50: 3.08 µM
  GI50: 3.08 µM
  IC50: 3.08 µM
HPAF-II, Pancreas
  EC50: 12.4 µM
  GI50: 12.4 µM
  IC50: 12.5 µM
HT1197, HT-1197, Bladder
  EC50: 15.6 µM
  GI50: 15.2 µM
  IC50: 15.6 µM
HT, Lymphoma
  EC50: 4.49 µM
  GI50: 4.46 µM
  IC50: 4.49 µM
HT-3, Female GU - Cervix
  EC50: 14.5 µM
  GI50: 14.3 µM
  IC50: 14.5 µM
HT-29, HT-29, Colon
  EC50: 17 µM
  GI50: 17 µM
  IC50: 17 µM
[9]
  EC50: 4.42 µM
  GI50: 4.42 µM
  IC50: 4.42 µM
HT-1376, HT1376, Bladder
  EC50: 14.1 µM
  GI50: 13.8 µM
  IC50: 14.1 µM
[10]
  EC50: 9.63 µM
  GI50: 9.46 µM
  IC50: 9.63 µM
HeLa, Female GU - Cervix
  EC50: 21.1 µM
  GI50: 21.1 µM
  IC50: 21.1 µM
HepG2, HepG2, Liver
  EC50: 25.6 µM
  GI50: 25.6 µM
  IC50: 25.7 µM
Hs 229.T, Lung - NSCLC
  EC50: 25.9 µM
  GI50: 25.2 µM
  IC50: 26.3 µM
Hs 294T, Skin (Melanoma)
  EC50: 8.33 µM
  GI50: 8.23 µM
  IC50: 8.33 µM
Hs 445, Hs 445, Lymphoma
  EC50: 5.8 µM
  GI50: 5.74 µM
  IC50: 5.8 µM
Hs 611.T, Lymphoma
  EC50: 5.11 µM
  GI50: 5.05 µM
  IC50: 5.11 µM
Hs 683, Hs 683, CNS - Glioma
  EC50: 24.5 µM
  GI50: 24.3 µM
  IC50: 24.6 µM
Hs 688(A).T, Skin (Melanoma)
  EC50: 7.43 µM
  GI50: 6.88 µM
  IC50: 7.68 µM
Hs746T, HS 746T, Stomach
  EC50: 20 µM
  GI50: 17.1 µM
  IC50: 20 µM
Hs766T, Hs 766T, Pancreas
  EC50: 9.34 µM
  GI50: 9.08 µM
  IC50: 9.34 µM
[11]
  EC50: 12.6 µM
  GI50: 9.99 µM
  IC50: 12.9 µM
[12]
  EC50: 12.3 µM
  GI50: 12.1 µM
  IC50: 12.7 µM
Hs 934.T, Skin (Melanoma)
  EC50: 11.1 µM
  GI50: 10.2 µM
  IC50: 11.6 µM
Hs 936.T(C1), Skin (Melanoma)
  EC50: 9.1 µM
  GI50: 10.2 µM
  IC50: 10.4 µM
Hs-578T, Hs 578T, Breast
  EC50: 15 µM
  GI50: 14.9 µM
  IC50: 15 µM
HuCCT-1, HuCCT1, Liver
  EC50: 24.8 µM
  GI50: 24.8 µM
  IC50: 24.8 µM
HuP-T4, HuP-T4, Pancreas
  EC50: 13.7 µM
  GI50: 13.6 µM
  IC50: 13.7 µM
J82, Bladder
  EC50: 6.22 µM
  GI50: 6.09 µM
  IC50: 6.22 µM
JAR, Placenta
  EC50: 6.53 µM
  GI50: 6.49 µM
  IC50: 6.53 µM
JEG-3, JEG-3, Placenta
  EC50: 6.5 µM
  GI50: 6.48 µM
  IC50: 6.51 µM
JIYOYE, Lymphoma
  EC50: 3.55 µM
  GI50: 3.55 µM
  IC50: 3.55 µM
JeKo-1, JeKo-1, Lymphoma
  EC50: 3.91 µM
  GI50: 3.91 µM
  IC50: 3.91 µM
Jurkat, Leukemia
  EC50: 3.59 µM
  GI50: 3.58 µM
  IC50: 3.59 µM
K562, K562, Leukemia
  EC50: 12.2 µM
  GI50: 12.2 µM
  IC50: 12.2 µM
KATO III, Stomach
  EC50: 10.9 µM
  GI50: 11.1 µM
  IC50: 11.1 µM
KHOS-240S, Soft Tissue - Osteosarcoma
  EC50: 4.96 µM

Source: patent publication US11331299B2, “Medicinal use of serrulatane diterpenes” (The University of Sydney, priority 2016, dated 2022)
